Measurements: the NIST ThermoML archive (doi:10.1016/j.jct.2013.01.004)

Key:
[1] = molar heat capacity at constant pressure; conditions: 101.33 kPa, Crystal, Thin-film microcalorimeter
[2] = 101.33 kPa, Crystal, Thin-film microcalorimeter

[O-2].[Zn+2] [zinc(II) oxide]
Conditions | molar entropy, [2] [J/K/mol] | molar heat capacity at constant pressure, [1] [J/K/mol]
1 K | 2e-05 | 6e-05
1.906 K | – | 0.0004
2 K | 0.0001 | 0.0004
2.105 K | – | 0.0005
2.329 K | – | 0.0007
2.579 K | – | 0.0009
2.856 K | – | 0.0013
3 K | 0.0005 | 0.0015
3.169 K | – | 0.0018
3.509 K | – | 0.0024
3.893 K | – | 0.0033
4 K | 0.0012 | 0.0036
4.319 K | – | 0.0045
4.794 K | – | 0.0062
5 K | 0.0023 | 0.007
5.322 K | – | 0.0085
5.907 K | – | 0.0115
6 K | 0.004 | 0.0121
6.557 K | – | 0.0158
7 K | 0.0064 | 0.0193
7.279 K | – | 0.0217
8 K | 0.0096 | 0.0288
8.084 K | – | 0.0296
8.978 K | – | 0.0409
9 K | 0.0136 | 0.0414
9.969 K | – | 0.0573
10 K | 0.0188 | 0.0577
11 K | 0.0252 | 0.0785
11.07 K | – | 0.0803
12 K | 0.0332 | 0.1048
12.3 K | – | 0.1145
13 K | 0.0428 | 0.1378
13.64 K | – | 0.1629
14 K | 0.0545 | 0.1786
15 K | 0.0684 | 0.2282
15.18 K | – | 0.237
16 K | 0.085 | 0.2876
16.82 K | – | 0.3415
17 K | 0.1045 | 0.3576
18 K | 0.1272 | 0.439
18.66 K | – | 0.5019
19 K | 0.1533 | 0.5323
20 K | 0.1833 | 0.6378
20.68 K | – | 0.718
22.98 K | – | 1.028
25 K | 0.3964 | 1.349
25.55 K | – | 1.448
28.39 K | – | 1.989
30 K | 0.7254 | 2.327
31.54 K | – | 2.658
35 K | 1.169 | 3.48
35.05 K | – | 3.48
38.93 K | – | 4.451
40 K | 1.714 | 4.713
43.22 K | – | 5.533
45 K | 2.341 | 5.965
48.01 K | – | 6.726
50 K | 3.035 | 7.218
53.32 K | – | 8.042
55 K | 3.781 | 8.463
59.21 K | – | 9.463
60 K | 4.569 | 9.606
65 K | 5.382 | 10.71
65.75 K | – | 10.92
70 K | 6.216 | 11.8
73.03 K | – | 12.44
75 K | 7.065 | 12.85
80 K | 7.928 | 13.87
81.09 K | – | 14.11
85 K | 8.798 | 14.86
90 K | 9.675 | 15.83
90.06 K | – | 15.91
95 K | 10.56 | 16.77
99.87 K | – | 17.65
100 K | 11.44 | 17.69
110 K | 13.21 | 19.46
110.46 K | – | 19.47
120 K | 14.98 | 21.16
120.49 K | – | 21.17
130 K | 16.73 | 22.78
130.48 K | – | 22.84
140 K | 18.48 | 24.34
140.63 K | – | 24.44
150 K | 20.21 | 25.82
150.79 K | – | 25.91
160 K | 21.92 | 27.24
160.85 K | – | 27.33
170 K | 23.61 | 28.58
170.76 K | – | 28.78
180 K | 25.28 | 29.85
181.03 K | – | 30.05
190 K | 26.93 | 31.05
191.32 K | – | 31.22
200 K | 28.55 | 32.19
201.42 K | – | 32.29
210 K | 30.15 | 33.26
211.59 K | – | 33.41
220 K | 31.72 | 34.27
221.8 K | – | 34.44
230 K | 33.26 | 35.22
232 K | – | 35.5
240 K | 34.78 | 36.12
242.17 K | – | 36.29
250 K | 36.27 | 36.96
252.15 K | – | 37.15
260 K | 37.74 | 37.76
262.28 K | – | 37.93
270 K | 39.18 | 38.5
272.28 K | – | 38.59
273.15 K | 39.63 | 38.73
280 K | 40.59 | 39.2
282.48 K | – | 39.3
290 K | 41.98 | 39.86
292.54 K | – | 39.86
298.15 K | 43.09 | 40.36
300 K | 43.34 | 40.48
302.58 K | – | 40.86
